The source of these data is US8778643B2, “Methods for increasing lipid levels and producing triacylglycerols in algae” (priority 2012, dated 2014).

Where two headings read alike, the source gives them in different places.

Assay [1] deals with Nannochloris sp. The experiment in a line: Microplate assay: growth (absorbance 680 nm) and intracellular lipids (Nile Red fluorescence). Type of assay: cell-based.
Protocol: (§1) Stock cultures were aerated by stirring with bubbling air (homemade manifold with Petco air pump, 2-4% CO2) or by orbital shaking (Thermo Scientific MAXQ 2000) at a constant speed of 150 rpm at 22±3° C. with a 16:8 hour light/dark cycle. Stocks were kept at stationary phase for use. Algae were prepared as dictated by culture center.
(§2) Compounds were selected based on reported biological activity in non-microalgae organisms. To ensure that compounds retained their quality, they were stored under advised conditions after purchasing from the manufacturer. Solutions of all assay compounds were prepared as 10 mM stock solutions by dissolving in DMSO in 2-dram amber vials and then stored in darkness −20° C. 96-well PCR plates were used to create a stock plate layout that was then transferred to the algae microplates. A plate map was used to distribute each compound to a well based on molecule name, collection number, and CAS number. For 20 μM and 200 nM assay plates, 10 mM compound stock in DMSO was diluted into plate maps of 5 mM and 50 μM assay stocks, respectively.
(§3) All materials for assay experiments were autoclaved before each use to maintain axenic algae cultures. Algae species were checked for homogeneity using a TS-100 light microscope (Nikon, Japan). […] Diluted stock solutions were made immediately prior to use for consistency and optimal plate growth. Cell density was measured on a Thermo Scientific Genesys 10S Vis Spectrophotometer (ThermoFisher, San Jose), using a 1 mL cuvette at 680 nm.
(§4) Plates were originally run in triplicate, before replicates were increased to quadruplicate, along with a separate control plate to compare growth. Due to extensive evaporation in exterior wells over time, our unique algae plate layout was designed to use the 60 interior wells out of 96 wells for the experiment. The 36 outer wells were filled with Millipore water and media to prevent evaporation and edge effects in the inner algae wells, as well as serve as blanks. The 60 wells with algae contained a total volume of 251 μL (100 μL of media+DMSO compound stock +150 μL dilute algae stock). For 20 μM and 200 nM assay plates, 10 mM compound stock in DMSO is diluted into plate maps of 5 mM and 50 μM assay stocks, respectively. […] Plates were parafilmed during growth to limit the amount of evaporation that can occur. Plates were numbered, and numerically ordered to ensure they got the same shaker space.
(§5) The shakers are kept at a constant shaking of 150 rpm. Ambient temperature is 22±3° C.
The test system of assay [2] is Nannochloropsis salina. The assay is described as follows: 500 mL batch culture: growth, dry weight and lipid extract (gravimetric). Type of assay: cell-based.
Protocol: (§6) Batch cultures were grown in 500 mL Pyrex media bottles with stirring and air bubbling (homemade manifold with Petco air pump, 2-4% CO2). Incoming air was sterile filtered by Polyvent 4 disposable filters (Whatman, Kent, UK). […] To minimize bacterial contamination, all equipment and materials were autoclaved and media was added to flask in a Purifier Vertical Clean bench (Labconco, Kansas City, Mo.). […] The amount of DMSO is standardized for all experiments to 0.4%.
(§7) For all compound cultures, the 2 mL DMSO stock solution was added to media (without algae) first and mixed well. Control cultures were grown without DMSO. DMSO controls consisted of 0.04-1.0% DMSO. After the addition of algae and media, the container was plugged with a bug stopper vented closure cap and mixed thoroughly. Absorbance is measured immediately for Day 0 analysis. Afterward, absorbance was measured every 1-2 days with a cuvette (1 mL volume) on the Thermo Scientific Genesys 10S V is Spectrophotometer (ThermoFisher, San Jose) at 680 nm.
(§8) Batch cultures were also repeated in triplicate and compared to a control culture grown at the same time. Algae were harvested and lipids were extracted for gravimetric analysis.
Cultures were harvested at day 6 in stationary phase. Cultures were pelleted, lyophilized, and extracted side-by-side. The experiment was performed in triplicate.
The nonpolar algal extracts were harvested from 500 mL cultures when indicated on growth curves, a minimum of 3 days into stationary phase. […] Cells were crushed and nonpolar lipids were extracted by sonication (Fisher Scientific Model 120 Sonic Dismembrator, ThermoFisher, San Jose) for 1 minute in chloroform, followed by chloroform-methanol extractions, washed with PBS butter, and dried under vacuum.^55-60 The crude non-polar algae extracts were then analyzed by ^1H Nuclear Magnetic Resonance (^1H NMR) for verification of TAG presence and examination of the purity of the extract (determination of level of chlorophyll).
(§9) Cell density was monitored by measuring absorbance at 680 nm every 1-2 days.
(§10) 500-mL cultures were harvested 6 days into stationary phase based on absorbance values. Cells were concentrated by centrifugation and lyophilization to remove water. Nonpolar lipids were extracted by sonication and solvent (chloroform-methanol and PBS buffer). […] Changes in lipid levels for batch cultures were determined by crude lipid extract mass.
For assay [3], the system named is Nannochloropsis oculata. The description is as above. The assay is classed as cell-based. The settings on record: for increase in lipid levels: 500 mL batch cultures, gravimetric (Table 30); for Change in Lipids: gravimetric, relative to averaged control without DMSO; for Specific Growth Rate: mid-exponential growth phase.
Protocol: as §6, §7, §8
(§11) The nonpolar algal extracts were harvested from 500 mL cultures when indicated on growth curves, a minimum of 3 days into stationary phase.
as §9, §10
Assay [4] concerns Nannochloris sp. Described as above. The assay is classed as cell-based. The following applies: for increase in lipid levels: 500 mL batch cultures, gravimetric (Table 30); for Lipid productivity / Change in Lipids / Specific Growth Rate: Nannochloris sp., 500 mL culture; for Change in Lipids: gravimetric, relative to averaged control without DMSO; for Specific Growth Rate: mid-exponential growth phase.
Protocol: as §6, §7, §8, §11, §9, §10

The test system of assay [5] is Nannochloropsis oculata. The experiment in a line: Lipid composition of batch culture extracts (fatty acid saturation / PUFA by 1H NMR, MALDI-TOF, GC/MS). Type of assay: cell-based. The settings on record: for SFAs (% of total lipids) / n3 PUFAs (% of UFAs) / All other PUFAs and MUFAs (% of UFAs) / UFAs (% of total lipids): 1H NMR; for SFAs (% of total lipids): Normal 24; for n3 PUFAs (% of UFAs): Normal 37; for All other PUFAs and MUFAs (% of UFAs): Normal 63; for UFAs (% of total lipids): Normal 76.

The subject of another assay is microalgae. The experiment in a line: 500 mL batch culture (growth, gravimetric lipids), algae strain not stated. The assay is classed as cell-based. The following applies: 500 mL batch cultures (Table 30).
The subject of assay [6] is Nannochloropsis salina.
Assay [7] deals with Nannochloropsis oculata. The settings on record: for % Increase based on Nile Red Fluorescence Intensity: DMSO delivery, added t=day 0.
Protocol: as §1, §2, §3, §4, §5
Assay [8] concerns Phaeodactylum tricornutum. The experiment in a line: Microplate assay: growth (absorbance 680 nm) and intracellular lipids (Nile Red fluorescence). Type of assay: cell-based.
The next assay deals with FABI. The following applies: cited from earlier work.
A further assay concerns Nannochloropsis sp. The assay is described as follows: Microplate assay: increase of lipid production (Table 17). Type of assay: cell-based. The following applies: best conc. 2.4 nM. From the text: We also tested a collection with more antioxidants, kinase inhibitors, and further compounds for increase of lipid production with N. salina, P. tricornutum, N. oculata, and Nannochloropsis sp.

A further assay concerns the target PKC. The following applies: PKC; cited from earlier work.
Setting [9] is: N. oculata, 500 mL culture, 400 nM.
The mark [10] stands for this setting: microplate assay, multiple concentrations.
Setting [11] is: 200 nM, initial microplate screen, relative to control.
[12] abbreviates: microplate dose-response screening.
Setting [13] is: N. oculata, 4 nM, harvested day 6 of stationary phase, n=3.
Setting [14] is: N. oculata, 500 mL culture, 4 nM.
Setting [15] is: 20 μM, initial microplate screen, relative to control.

Protocol for microalgae: as §6, §7, §9, §10

With `CCN(CC)CCCC(C)Nc1c2ccc(Cl)cc2nc2ccc(OC)cc12.Cl.Cl` (stereo not shown) [Quinacrine, 6-Chloro-9-(4-diethylamino-1-methylbutyl-amino)-2-methoxyacridine dihydrochloride], the “% Increase based on Nile Red Fluorescence Intensity” value with Nannochloris sp. [1] is given as 135%; in the assay with Nannochloris sp. [1] (Nannochloris sp., 49 nM, dissolved in water, added t=day 0) it was 136%; with Nannochloropsis oculata [7] (N. oculata, 61 pM) it was 100%; with Nannochloropsis oculata [7] (N. oculata, 244 pM), 106%; in the assay on Nannochloropsis oculata [7] (N. oculata, 976 pM), 93%; in the assay with Nannochloropsis oculata [7] (N. oculata, 4 nM), 75%. For the same compound, the “% Increase based on Nile Red Fluorescence Intensity” value with Nannochloropsis oculata [7] (N. oculata, 15.6 nM) was found to be 66%. In addition, the “% Lipid increase based on Nile red fluorescence intensity” value in the assay on Nannochloris sp. [1] (Nannochloris sp., 49 nM, (water), t=day 0) was found to be 136%; in the assay on Nannochloropsis oculata [7] (N. oculata, 244 nM, DMSO, t=day 0), 106%. For the same compound, in the assay on Nannochloris sp. [1] (in water, dose-response microplate screening), the “increase in intracellular lipids compared to the control (Nile red)” value was “more than 100%”. Moreover, the Lipid productivity in the assay with Nannochloropsis salina [2] (N. salina, 500 mL culture, 40 nM) is given as 4.5 ± 1.0 mgL^−1day^−1; in the assay on Nannochloropsis oculata [3] (setting [9]), 5.2 ± 0.6 mgL^−1day^−1; with Nannochloris sp. [4] (40 nM), 4.2 ± 1.1 mgL^−1day^−1. Further, the Lipid content in the assay on Nannochloropsis salina [2] (N. salina, 500 mL culture, 40 nM, dried lipid extract per dry biomass) was 26.5 ± 3.9 % w/w. In addition, the “Change in Lipids” value with Nannochloropsis salina [2] (N. salina, 500 mL culture, 40 nM, gravimetric, relative to averaged control without DMSO) is reported as 6%; with Nannochloropsis oculata [3] (setting [9]) it was 51%; with Nannochloris sp. [4] (40 nM) it was 31%. In addition, the “Specific Growth Rate” value was found to be 0.25 ± 0.02 day⁻¹ with Nannochloropsis salina [2] (N. salina, 500 mL culture, 40 nM, mid-exponential growth phase); 0.18 ± 0.04 day⁻¹ in the assay with Nannochloropsis oculata [3] (setting [9]); 0.18 ± 0.01 day⁻¹ in the assay with Nannochloris sp. [4] (40 nM). The “increase in lipid levels” value with Nannochloropsis oculata [3] is reported as 51%; with Nannochloris sp. [4], 31%. In the assay with Nannochloropsis oculata [5] (4 nM), the “SFAs (% of total lipids)” value is listed as 53 % of total lipids. For the same compound, the “n3 PUFAs (% of UFAs)” value in the assay with Nannochloropsis oculata [5] (4 nM) is on record as 45 % of UFAs. The “All other PUFAs and MUFAs (% of UFAs)” value with Nannochloropsis oculata [5] (4 nM) is 55 % of UFAs. In the assay with Nannochloropsis oculata [5] (4 nM), the “UFAs (% of total lipids)” value was 47 % of total lipids. Moreover, in the assay on Nannochloropsis oculata [5] (N. oculata, 400 nM, n=1, Normal 0 ± 1), the “SFAs (%)” value amounted to 3%. In the assay with Nannochloropsis oculata [5] (N. oculata, 400 nM, n=1, Normal 4 ± 7), the “MUFAs (%)” value is 12%. The “n3 PUFAs (%)” value in the assay with Nannochloropsis oculata [5] (N. oculata, 400 nM, n=1, Normal 28 ± 4) was found to be 17%. Besides, the “PUFAs (%)” value in the assay on Nannochloropsis oculata [5] (N. oculata, 400 nM, n=1, Normal 96 ± 7) stood at 76%. The “effect on growth and lipid levels” value in the assay with microalgae is “positive increases in growth and lipid levels”. For the same compound, the “Nile Red percent increase” value in the assay with Nannochloropsis salina [6] (55 nM, dose-response microplate screen) came to 103%.
A word on the IC50: it is the midpoint of a concentration-inhibition curve. As for `O=C(O[C@@H]1Cc2c(O)cc(O)cc2O[C@@H]1c1ccc(O)c(O)c1)c1cc(O)c(O)c(O)c1` [(−)-epicatechin gallate, [(2R,3R)-2-(3,4-dihydroxyphenyl)-5,7-dihydroxy-3,4-dihydro-2H-chromen-3-yl] 3,4,5-trihydroxybenzoate], the “% Inc” value in assay [8] (increase of lipid production, P. tricornutum, best conc. 156 nM) is reported as 77.89%. Also, the “effect on lipid production / lipid levels” value (in [8] (setting [10]); with Nannochloris sp. [1] (setting [10]); with Nannochloropsis salina [6] (setting [10]); with Nannochloropsis oculata [7] (setting [10])) was “lipid production increased” each time. Besides, the “concentration of the highest lipid increase” value in assay [8] (microplate, catechin screen (FIG. 14)) lay in the range of 39 to 56 nM. In the assay on FABI, the half-maximal inhibitory concentration (IC50) was 200 nM.
Take `C=C[C@@]1(C)CC(=O)[C@]2(O)[C@@]3(C)[C@@H](O)CCC(C)(C)[C@@H]3[C@H](O)[C@H](OC(C)=O)[C@@]2(C)O1` [Forskolin, (3R,4aR,5S,6S,6aS,10S,10aR,10bS)-6,10,10b-Trihydroxy-3,4a,7,7,10a-pentamethyl-1-oxo-3-vinyldodecahydro-1H-benzo[f]chromen-5-yl acetate]: the “Absorbance (percent increase)” value in assay [8] (setting [11]) is −1.2%; in the assay on Nannochloris sp. [1] (setting [11]), −5.5%; in the assay on Nannochloropsis oculata [7] (setting [15]), −17.3%. Besides, the “Nile Red percent increase” value in [8] (setting [11]) worked out at 103.6%; in the assay on Nannochloris sp. [1] (13 nM, dose-response microplate screen), 121%; in the assay with Nannochloris sp. [1] (41.2 nM, dose-response microplate screen) it was 118%; in the assay with Nannochloris sp. [1] (setting [11]) it was 60.6%; in the assay on Nannochloropsis oculata [7] (setting [15]), 50.4%. Further, the “lipid increase relative to the control” value is around 40% in assay [8] (setting [12]), at least 100% with Nannochloris sp. [1] (setting [12]), around 40% with Nannochloropsis salina [6] (setting [12]) and at least 100% with Nannochloropsis oculata [7] (setting [12]). The “Nile Red Fluorescence % Increase” value with Nannochloris sp. [1] (Nannochloris sp., compounds tested at 20 μM, initial screening, p<0.05) is listed as 45.3%. For the same compound, the “effect on growth and lipid levels” value with Nannochloropsis salina [2] (500 mL batch culture) is “increases in lipid production”; with Nannochloropsis oculata [3] (500 mL batch culture), “increases in lipid production”; in the assay on Nannochloris sp. [4] (500 mL batch culture), “increases in lipid production”; in the assay on microalgae, “positive increases in growth and lipid levels”. Further, the “increase in lipid levels” value with Nannochloropsis oculata [3] amounted to 84%; in the assay with Nannochloris sp. [4], 51%. The same compound returned an Absorbance at harvest in the assay on Nannochloropsis oculata [3] (setting [13]) of 2.10. The “Dry weight” value with Nannochloropsis oculata [3] (setting [13]) came out at 353.57 mg. The “Extract Weight” value with Nannochloropsis oculata [3] (setting [13]) worked out at 88.67 mg. Also, the “Number of Cells” value in the assay with Nannochloropsis oculata [3] (setting [13]) was found to be 2.46E+09. Further, the “Recovered Weight” value in the assay with Nannochloropsis oculata [3] (setting [13]) is listed as 344.90 mg. Further, the Lipid productivity with Nannochloropsis oculata [3] (setting [14]) amounted to 6.4 ± 1.2 mgL^−1day^−1; with Nannochloris sp. [4] (10 μM), 4.5 ± 1.7 mgL^−1day^−1. The compound also had a Lipid content in the assay on Nannochloropsis oculata [3] (N. oculata, 500 mL culture, 4 nM, dried lipid extract per dry biomass) of 25.6 ± 1.8 % w/w. For the same compound, the entries for the “Change in Lipids” value in the assay on Nannochloropsis oculata [3] (setting [14]) and in the assay with Nannochloris sp. [4] (10 μM) were 84% and 51%, respectively. The entries for the “Specific Growth Rate” value in the assay with Nannochloropsis oculata [3] (setting [14]) and in the assay with Nannochloris sp. [4] (10 μM) were 0.17 ± 0.02 day⁻¹ and 0.15 ± 0.05 day⁻¹, respectively. The “SFAs (% of total lipids)” value in the assay on Nannochloropsis oculata [5] (40 nM) is 59 % of total lipids. In addition, the “n3 PUFAs (% of UFAs)” value in the assay on Nannochloropsis oculata [5] (40 nM) is on record as 61 % of UFAs. The “All other PUFAs and MUFAs (% of UFAs)” value in the assay on Nannochloropsis oculata [5] (40 nM) is 39 % of UFAs. Further, the “UFAs (% of total lipids)” value in the assay with Nannochloropsis oculata [5] (40 nM) is reported as 41 % of total lipids.
As to `Cc1c(C)c2c(c(C)c1O)CC[C@@](C)(CCC[C@H](C)CCC[C@H](C)CCCC(C)C)O2` (racemic) [DL-α-Tocopherol (Vitamin E), (2R)-2,5,7,8-tetramethyl-2-[(4R,8R)-4,8,12-trimethyltridecyl]-3,4-dihydrochromen-6-ol], the “% Inc” value in the assay on Nannochloropsis sp. worked out at 31.44%.
In general, Ki refers to a measure of affinity in units of concentration, obtained from inhibition or displacement. Turning to `COC(=O)[C@@]1(O)C[C@H]2O[C@]1(C)n1c3ccccc3c3c4c(c5c6ccccc6n2c5c31)C(=O)NC4` [K-252a], at PKC, the Ki was 25 nM.
